Measured values taken from ChEMBL document CHEMBL1145177, “Further naphthylcombretastatins. An investigation on the role of the naphthalene moiety” (J Med Chem, 2005).

Tests used:
Type in all cases: functional, cell-based
[1] = system: HT-29; experiment: Inhibitory concentration value against human colon adenocarcinoma HT-29 tumor cell line
[2] = system: SK-MEL-28; experiment: Inhibitory concentration value against human MEL-28 tumor cell line
[3] = system: P388; experiment: Inhibitory concentration value against murine P-388 tumor cell line; details: Mus musculus
[4] = system: A549; experiment: Inhibitory concentration value against human A-549 tumor cell line
[5] = system: HCT-116; experiment: Inhibitory concentration value against human colon carcinoma H-116 tumor cell line
[6] = Inhibitory concentration value against human MEL-28 or human cancer HeLa tumor cell line
[7] = system: HL-60; experiment: Inhibitory concentration value against human colon carcinoma H-116 or human cancer HL-60 tumor cell line

| Structure (SMILES) | IC50 [1] [µM] | IC50 [2] [µM] | IC50 [3] [µM] | IC50 [4] [µM] | IC50 [5] [µM] | IC50 [6] [µM] | IC50 [7] [µM] |
| --- | --- | --- | --- | --- | --- | --- | --- |
| FC(F)(F)c1ccc(/C=C/c2ccc3ccccc3c2)cc1 | > 5 | > 5 | > 5 | > 5 | > 5 |  |  |
| COc1cc(/C=C\c2cn(C(C)=O)c3ccccc23)cc(OC)c1OC | 2.85 |  | 2.85 | 2.85 |  | 2.85 | 2.85 |
| COc1cc(/C=C/c2cn(C)c3ccccc23)cc(OC)c1OC | 3.09 |  | 3.09 | 3.09 |  | 3.09 | 3.09 |
| C(=C/c1ccco1)/c1ccc2ccccc2c1 | > 5 | > 5 | > 5 | > 5 | > 5 |  |  |
| COc1ccc(/C=C\c2ccc3ccccc3c2)cc1[N+](=O)[O-] | 3.28 | > 20 | > 20 | > 20 | > 20 |  |  |
| Cn1c2ccccc2c2cc(/C=C/c3ccc4ccccc4c3)ccc21 | > 5 | > 5 | > 5 | > 5 | > 5 |  |  |
| C(=C/c1ccc2ccccc2c1)/c1ccoc1 | > 5 | > 5 | > 5 | > 5 | > 5 |  |  |
| COCCOc1cc(/C=C\c2ccc3ccccc3c2)ccc1OC | 2.99 | 2.99 | 2.99 | 2.99 | 2.99 |  |  |
| O=S(=O)(c1ccccc1)n1ccc2cc(/C=C\c3ccc4ccccc4c3)ccc21 | > 5 | > 5 | > 5 | > 5 | > 5 |  |  |
| CN(C)c1ccc(/C=C\c2ccc3ccccc3c2)cc1 | 3.66 | 3.66 | 3.66 | 3.66 | 3.66 |  |  |
| CC(=O)Oc1ccc(/C=C/c2ccc3ccccc3c2)cc1 | > 5 | > 5 | > 5 | > 5 | > 5 |  |  |
| Cc1ccc(/C=C\c2ccc3ccccc3c2)cc1 | > 5 | > 5 | > 5 | > 5 | > 5 |  |  |
| Cn1c2ccccc2c2cc(/C=C\c3ccc4ccccc4c3)ccc21 | > 5 | > 5 | > 5 | > 5 | > 5 |  |  |
| COc1ccc(/C=C/c2ccc3ccccc3c2)cc1 | > 5 | > 5 | > 5 | > 5 | > 5 |  |  |
| FC(F)(F)Oc1ccc(/C=C/c2ccc3ccccc3c2)cc1 | > 5 | > 5 | > 5 | > 5 | > 5 |  |  |
| Cn1ccc2cc(/C=C/c3ccc4ccccc4c3)ccc21 | > 5 | > 5 | > 5 | 3.53 | > 5 |  |  |
| Oc1ccc(/C=C/c2ccc3ccccc3c2)cc1 | 4.06 | 4.06 | 4.06 | 4.06 | 4.06 |  |  |
| Cc1ccc(/C=C/c2ccc3ccccc3c2)cc1 | > 5 | > 5 | > 5 | > 5 | > 5 |  |  |

More lines, now with the values ahead:

| IC50 [1] [µM] | IC50 [2] [µM] | IC50 [3] [µM] | IC50 [4] [µM] | IC50 [5] [µM] | IC50 [6] [µM] | IC50 [7] [µM] | Structure (SMILES) |
| --- | --- | --- | --- | --- | --- | --- | --- |
| 3.5 | 3.5 | 3.5 | 3.5 | 3.5 |  |  | FC(F)(F)Oc1cccc(/C=C\c2ccc3ccccc3c2)c1 |
| > 5 | > 5 | > 5 | > 5 | > 5 |  |  | Cn1ccc2cc(/C=C\c3ccc4ccccc4c3)ccc21 |
| > 5 |  | > 5 | > 5 |  | > 5 | > 5 | COc1cc(/C=C\c2ccc3ccccc3c2)cc(NC(C)=O)c1OC |
| > 5 |  | > 5 | > 5 |  | > 5 | > 5 | COc1c([N+](=O)[O-])cc(/C=C\c2ccc3ccccc3c2)cc1[N+](=O)[O-] |
| > 5 |  | 5 | > 5 |  | > 5 | 5 | COc1c(N)cc(/C=C\c2ccc3ccccc3c2)cc1N |
| 0.3 |  | 1.52 | 1.52 |  | 1.52 | 1.52 | COc1cc(/C=C/c2ccc(N(C)C)c(N)c2)cc(OC)c1OC |
| > 5 | > 5 | > 5 | > 5 | > 5 |  |  | COc1ccc(/C=C/c2ccc3ccccc3c2)cc1C(=O)CN |
| > 5 | > 5 | > 5 | > 5 | > 5 |  |  | CCN(CC)c1cc(/C=C/c2ccc3ccccc3c2)ccc1OC |
| > 5 | 2.99 | 2.99 | 2.99 | > 5 |  |  | COCCOc1cc(/C=C/c2ccc3ccccc3c2)ccc1OC |
| 1.82 | > 20 | 1.82 | > 20 | 0.36 |  |  | COc1ccc(/C=C\c2ccc3ccccc3c2)cc1N |
| > 5 | > 5 | > 5 | > 5 | > 5 |  |  | COc1ccc(/C=C/c2ccc3ccccc3c2)cc1[N+](=O)[O-] |
| > 5 | > 5 | > 5 | > 5 | > 5 |  |  | C(=C/c1ccc2[nH]ccc2c1)/c1ccc2ccccc2c1 |
| > 5 | > 5 | > 5 | > 5 | > 5 |  |  | FC(F)(F)c1ccc(/C=C\c2ccc3ccccc3c2)cc1 |
| > 5 | > 5 | > 5 | > 5 | > 5 |  |  | C(=C\c1ccc2ccccc2c1)/c1ccc2c(c1)-c1ccccc1C2 |
| > 5 | > 5 | > 5 | 1.82 | 1.82 |  |  | COc1ccc(/C=C/c2ccc3ccccc3c2)cc1N |
| > 5 | > 5 | > 5 | > 5 | > 5 |  |  | C(=C/c1ccc2ccccc2c1)/c1ccc2c(c1)-c1ccccc1C2 |
| 3.66 | 3.66 | 3.66 | 3.66 | 3.66 |  |  | CN(C)c1ccc(/C=C/c2ccc3ccccc3c2)cc1 |
| > 5 | > 5 | > 5 | > 5 | > 5 |  |  | C(=C\c1ccco1)/c1ccc2ccccc2c1 |
| > 5 | > 5 | > 5 | > 5 | > 5 |  |  | C(=C\c1ccc2ccccc2c1)/c1ccoc1 |
| 3.57 | 3.57 | 3.57 | 3.57 | 3.57 |  |  | C(=C/c1cccc2ccccc12)/c1ccc2ccccc2c1 |
| > 5 | > 5 | 4.49 | > 5 | > 5 |  |  | COc1ccc(/C=C/c2ccc3ccccc3c2)cc1F |
| > 5 | > 5 | > 5 | > 5 | > 5 |  |  | O=S(=O)(c1ccccc1)n1ccc2cc(/C=C/c3ccc4ccccc4c3)ccc21 |
| > 5 | > 5 | > 5 | 1.58 | > 5 |  |  | COc1ccc(/C=C\c2ccc3ccccc3c2)cc1C(=O)CN |
